{"source": "patent US9249194B2", "about": "(priority 2009, dated 2016)", "format_in_all_cases": "cell-based", "key": {"[1]": {"test_system": "SH-SY5Y human neuroblastoma cells"}, "[2]": {"test_system": "SH-SY5Y human neuroblastoma cells", "remark": "listed apart in the source"}, "[3]": {"test_system": "SH-SY5Y human neuroblastoma cells", "remark": "listed apart in the source"}}}
{"compound": "OO", "note": "[H2O2, hydrogen peroxide]", "values": [{"measurement": "neurite retraction after hydrogen peroxide treatment", "setting": "[1]", "result": "neurites shorten"}]}
{"compound": "CCCC(=O)Nc1ncnc2c1ncn2[C@@H]1O[C@@H]2COP(=O)(O)O[C@H]2[C@H]1OC(=O)CCC", "note": "[db-cAMP, dibutyril c-AMP]", "values": [{"measurement": "elongation / length of the neurites", "setting": "[2]", "result": "triggers elongation of neurites"}]}
{"compound": "lysophosphatidic acid [LPA]", "values": [{"measurement": "length / collapsing of neurites with increasing doses of LPA", "setting": "[3]", "result": "linear retraction of the length of the neurites"}, {"measurement": "neurites after LPA treatment (retraction or preservation)", "setting": "[3]", "result": "retraction of the neurites"}]}
